Several values for one entry are separate records, joined by “and”; a condition that tells them apart may be missing. Equal entries are not always repeated.
Tested on: 485368-065-R4-J2-PDC spheroids with HUVEC/MSC, viability
Test: Anticancer human tumor 485368-065-R4-J2-PDC patient-derived pancreatic carcinoma cell line growth inhibition [CLK]
Conditions: for viability, T/C: stronger effect = lower value
Procedure, shortened: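 Patient-derived tumor cells grown as complex spheroids with HUVEC endothelial cells and mesenchymal stem cells, treated with drug combinations. Concentrations descend in half-log steps from near clinical Cmax, or from 10 microM if Cmax unknown.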

[1] = curve of first compound, second compound 0.0316 µM
[2] = curve of first compound, second compound 0.1 µM
[3] = curve of first compound, second compound 0.316 µM
[4] = curve of first compound, second compound 1 µM
[5] = curve of first compound, second compound 3.16 µM
[6] = curve of first compound, second compound 10 µM
[7] = second compound 0.0316 µM, first compound 0.0316 µM
[8] = second compound 0.0316 µM, first compound 0.1 µM
[9] = second compound 0.0316 µM, first compound 0.316 µM
[10] = second compound 0.0316 µM, first compound 1 µM
[11] = second compound 0.0316 µM, first compound 3.16 µM
[12] = second compound 0.0316 µM, first compound 10 µM
[13] = second compound 0.1 µM, first compound 0.0316 µM
[14] = second compound 0.1 µM, first compound 0.1 µM
[15] = second compound 0.1 µM, first compound 0.316 µM
[16] = second compound 0.1 µM, first compound 1 µM
[17] = second compound 0.1 µM, first compound 3.16 µM
[18] = second compound 0.1 µM, first compound 10 µM
[19] = second compound 0.316 µM, first compound 0.0316 µM
[20] = second compound 0.316 µM, first compound 0.1 µM
[21] = second compound 0.316 µM, first compound 0.316 µM
[22] = second compound 0.316 µM, first compound 1 µM
[23] = second compound 0.316 µM, first compound 3.16 µM
[24] = second compound 0.316 µM, first compound 10 µM
[25] = second compound 1 µM, first compound 0.0316 µM
[26] = second compound 1 µM, first compound 0.1 µM
[27] = second compound 1 µM, first compound 0.316 µM
[28] = second compound 1 µM, first compound 1 µM
[29] = second compound 1 µM, first compound 3.16 µM
[30] = second compound 1 µM, first compound 10 µM
[31] = second compound 3.16 µM, first compound 0.0316 µM
[32] = second compound 3.16 µM, first compound 0.1 µM
[33] = second compound 3.16 µM, first compound 0.316 µM
[34] = second compound 3.16 µM, first compound 1 µM
[35] = second compound 3.16 µM, first compound 3.16 µM
[36] = second compound 3.16 µM, first compound 10 µM
[37] = second compound 10 µM, first compound 0.0316 µM
[38] = second compound 10 µM, first compound 0.1 µM
[39] = second compound 10 µM, first compound 0.316 µM
[40] = second compound 10 µM, first compound 1 µM
[41] = second compound 10 µM, first compound 3.16 µM
[42] = second compound 10 µM, first compound 10 µM
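Note: spheroids exposed to compounds for seven days.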
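Throughout, for viability, T/C: 100% = DMSO vehicle control wells.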

`C#Cc1c(F)ccc2cc(O)cc(-c3ncc4c(N5CC6CCC(C5)N6)nc(OCC56CCCN5CC(F)C6)nc4c3F)c12` (stereo unspecified) + CN1CCN(c2cc(C(=O)Nc3cc4cc(-c5cnn(C)c5)ccc4cn3)ccn2)CC1 was tested, and the IC50 [1] was greater than 10 µM, the IC50 [2] was greater than 10 µM and the IC50 [3] was 9.71 µM. It also gave an IC50 [4] of less than 0.0316 µM, an IC50 [5] of less than 0.0316 µM and an IC50 [6] of less than 0.0316 µM. The viability, T/C [7] was 94.6%, the viability, T/C [8] was 106% and the viability, T/C [9] was 96.7%. The viability, T/C [10] was 116%, the viability, T/C [11] was 107% and the viability, T/C [12] was 117%. It also gave a viability, T/C [13] of 112%, a viability, T/C [14] of 115% and a viability, T/C [15] of 96.3%. For the same compound, the viability, T/C [16] was 111%, the viability, T/C [17] was 96% and the viability, T/C [18] was 75.8%. For the same compound, the viability, T/C [19] was 90.3%, the viability, T/C [20] was 90.9% and the viability, T/C [21] was 82.5%. For the same compound, the viability, T/C [22] was 80.7%, the viability, T/C [23] was 68.6% and the viability, T/C [24] was 49.3%. For the same compound, the viability, T/C [25] was 3.21%, the viability, T/C [26] was 2.21% and the viability, T/C [27] was 1.7%. For the same compound, the viability, T/C [28] was 2.24%, the viability, T/C [29] was 1.78% and the viability, T/C [30] was 1.33%. It also gave a viability, T/C [31] of 1.18%, a viability, T/C [32] of 1.09% and a viability, T/C [33] of 1.08%. For the same compound, the viability, T/C [34] was 1.21%, the viability, T/C [35] was 1.29% and the viability, T/C [36] was 1.21%. The viability, T/C [37] was 1.44%, the viability, T/C [38] was 2.45% and the viability, T/C [39] was 1.6%. For the same compound, the viability, T/C [40] was 1.34%, the viability, T/C [41] was 2.21% and the viability, T/C [42] was 1.87%.

`O=c1[nH]cc(F)c(=O)[nH]1` + CN1CCN(c2cc(C(=O)Nc3cc4cc(-c5cnn(C)c5)ccc4cn3)ccn2)CC1 gave an IC50 [1] greater than 10 µM, an IC50 [2] greater than 10 µM and an IC50 [3] greater than 10 µM. The IC50 [4] was less than 0.0316 µM, the IC50 [5] was less than 0.0316 µM and the IC50 [6] was less than 0.0316 µM. For the same compound, the viability, T/C [7] was 99.3%, the viability, T/C [8] was 108% and the viability, T/C [9] was 102%. For the same compound, the viability, T/C [10] was 112%, the viability, T/C [11] was 99.6% and the viability, T/C [12] was 82%. It also gave a viability, T/C [13] of 106%, a viability, T/C [14] of 114% and a viability, T/C [15] of 115%. For the same compound, the viability, T/C [16] was 110%, the viability, T/C [17] was 114% and the viability, T/C [18] was 81.8%. For the same compound, the viability, T/C [19] was 90%, the viability, T/C [20] was 89.7% and the viability, T/C [21] was 87.6%. It also gave a viability, T/C [22] of 91.8%, a viability, T/C [23] of 101% and a viability, T/C [24] of 62%. The viability, T/C [25] was 1.1%, the viability, T/C [26] was 1.31% and the viability, T/C [27] was 0.78%. The viability, T/C [28] was 0.63%, the viability, T/C [29] was 0.79% and the viability, T/C [30] was 1.51%. The viability, T/C [31] was 1.14%, the viability, T/C [32] was 2.13% and the viability, T/C [33] was 1.09%. For the same compound, the viability, T/C [34] was 1.94%, the viability, T/C [35] was 1.84% and the viability, T/C [36] was 2%. For the same compound, the viability, T/C [37] was 1.01%, the viability, T/C [38] was 2.05% and the viability, T/C [39] was 2.31%. For the same compound, the viability, T/C [40] was 1.29%, the viability, T/C [41] was 1.06% and the viability, T/C [42] was 1.21%.

With `CN1CCN(c2cc(C(=O)Nc3cc4cc(-c5cnn(C)c5)ccc4cn3)ccn2)CC1` the viability, T/C (compound 0.0316 µM) was 95.6% [middle of 12 runs], the viability, T/C (compound 0.316 µM) was 83% [middle of 12 runs] and the viability, T/C (compound 1 µM) was 0.9% [middle of 11 runs]. The viability, T/C (compound 3.16 µM) was 1.39% [middle of 12 runs], the viability, T/C (compound 10 µM) was 1.68% [middle of 11 runs] and the IC50 (compound alone, run of 08/14/2023) was 504 nM [middle of 12 runs].

In the case of `CNC(=O)c1ccc(Nc2nc(OC3CCCC3)c3c(-c4ccc5nc(C)oc5c4)c[nH]c3n2)c(OC)c1`, the viability, T/C (compound 0.0316 µM) is reported as 91.6% [middle of 12 runs], the viability, T/C (compound 0.1 µM) is reported as 96.7% [middle of 12 runs] and the viability, T/C (compound 0.316 µM) is reported as 82.6% [middle of 12 runs]. For the same compound, the viability, T/C (compound 1 µM) was 70.9% [middle of 12 runs], the viability, T/C (compound 3.16 µM) was 71.5% [middle of 12 runs] and the viability, T/C (compound 10 µM) was 76.5% [middle of 12 runs]. For the same compound, the IC50 (compound alone, run of 08/15/2023) was greater than 10 µM.

With `Cn1ncnc1[C@H]1c2n[nH]c(=O)c3cc(F)cc(c23)N[C@@H]1c1ccc(F)cc1` the viability, T/C (compound 0.000316 µM) was 94.6% and 84.6%, the viability, T/C (compound 0.001 µM) was 88.2% and 97.3% and the viability, T/C (compound 0.00316 µM) was 100% and 92.9%. For the same compound, the viability, T/C (compound 0.01 µM) was 94.7% and 89.8%, the viability, T/C (compound 0.0316 µM) was 94.3% and 105% and the viability, T/C (compound 0.1 µM) was 97.9% and 98.6%. The IC50 (curve of compound) was greater than 0.1 µM.

Compound `CC1(C)CCC(CN2CCN(c3ccc(C(=O)NS(=O)(=O)c4ccc(NCC5CCOCC5)c([N+](=O)[O-])c4)c(Oc4cnc5[nH]ccc5c4)c3)CC2)=C(c2ccc(Cl)cc2)C1` + CNC(=O)c1ccc(Nc2nc(OC3CCCC3)c3c(-c4ccc5nc(C)oc5c4)c[nH]c3n2)c(OC)c1 has an IC50 [1] of 7.11 µM, an IC50 [2] of 7.32 µM and an IC50 [3] of 6.86 µM. The IC50 [4] was 6.75 µM, the IC50 [5] was 6.51 µM and the IC50 [6] was 6.43 µM. It also gave a viability, T/C [7] of 101%, a viability, T/C [8] of 95.1% and a viability, T/C [9] of 85.5%. It also gave a viability, T/C [10] of 102%, a viability, T/C [11] of 117% and a viability, T/C [12] of 28.9%. It also gave a viability, T/C [13] of 98.2%, a viability, T/C [14] of 97.6% and a viability, T/C [15] of 98.3%. The viability, T/C [16] was 105%, the viability, T/C [17] was 107% and the viability, T/C [18] was 30.8%. For the same compound, the viability, T/C [19] was 86.7%, the viability, T/C [20] was 89.8% and the viability, T/C [21] was 93.4%. For the same compound, the viability, T/C [22] was 89.5%, the viability, T/C [23] was 97.1% and the viability, T/C [24] was 29.9%. The viability, T/C [25] was 74.6%, the viability, T/C [26] was 76% and the viability, T/C [27] was 80.7%. For the same compound, the viability, T/C [28] was 87.2%, the viability, T/C [29] was 98.7% and the viability, T/C [30] was 32.6%. The viability, T/C [31] was 74%, the viability, T/C [32] was 73.9% and the viability, T/C [33] was 74%. For the same compound, the viability, T/C [34] was 73.5%, the viability, T/C [35] was 93.5% and the viability, T/C [36] was 33.5%. For the same compound, the viability, T/C [37] was 72.6%, the viability, T/C [38] was 72% and the viability, T/C [39] was 62.2%. It also gave a viability, T/C [40] of 72.6%, a viability, T/C [41] of 90.8% and a viability, T/C [42] of 35.2%.

Reference: PubChem BioAssay AID2060617 (Molecular Pharmacology Branch, DTP, NCI, 2025)
